Test results as given in patent US20170305965A1, “Fab REGION-BINDING PEPTIDE” (KANEKA CORPORATION, priority 2014, published 2017).

Tests used:
[1] = system: IgG-Fab of anti-HER2 monoclonal antibody (Trastuzumab); assay: Biacore 3000 surface plasmon resonance analysis of affinity of SpG variants for immobilized IgG-Fab; format: binding, human; conditions: for KA (affinity constant, KA=kon/koff) / koff / kon: Anti-HER2 antibody - Fab immobilized on CM5, peptide 0.1-0.8 μM, 25° C., pH 7.4, 1:1 binding model; for KA Vs. Wild: ratio of KA to that of GB2*-Wild.1d, Anti-HER2 antibody - Fab
From the text: A humanized monoclonal IgG product as a raw material was fragmented into a Fab fragment and a Fc fragment using papain, and only the Fab fragment was separated and purified. Hereinafter, a method for producing IgG-Fab derived from anti-HER2 monoclonal antibody (generic name: Trastuzumab) is described. In the present disclosure, when other IgG-Fab was used for evaluation, the fragment was basically prepared in a similar method.
Specifically, a humanized monoclonal IgG product (“HERCEPTIN” manufactured by CHUGAI PHARMACEUTICAL CO., LTD., in the case of anti-HER2 monoclonal antibody) was dissolved in a buffer for papain treatment (0.1 M AcOH—AcONa, 2 mM EDTA, 1 mM cysteine, pH 5.5), and agarose on which papain was immobilized (“Papain Agarose from papaya latex” manufactured by SIGMA) was added thereto. The mixture was incubated with stirring by a rotator at 37° C. for about 8 hours. The IgG-Fab was purified by recovering the IgG-Fab as a flow-through fraction in an affinity chromatography using KanCapA column (manufactured by GE Healthcare Bioscience) from the reaction mixture which contained both of a Fab fragment and a Fc fragment and which was separated from the agarose on which papain was immobilized. The obtained crude IgG-Fab solution was subjected to purification by gel filtration chromatography using Superdex 75 10/300 GL column to obtain IgG-Fab solution. In the chromatography, a standard buffer was used for equilibration and separation. Similarly to the above-described Example 1, AKTAprime plus system was used in the chromatography for protein purification.
The affinity of each of the SpG-β2* variant obtained in the above-described Example 1(2) for the IgG-Fab of anti-HER2 monoclonal antibody was evaluated using a biosensor Biacore 3000 (manufactured by GE Healthcare Bioscience) utilizing surface plasmon resonance. In the present Example, the IgG-Fab obtained in the above-described Example 2(1) was immobilized on a sensor tip, and each of the peptide was flown on the tip to detect the interaction between the two. The IgG-Fab was immobilized on a sensor tip CM5 by amine coupling method using N-hydroxysuccinimide (NHS) and N-ethyl-N′-(3-dimethylaminopropyl)carbodiimide hydrochloride (EDC), and ethanolamine was used for blocking. All of the sensor tip and reagents for immobilization was manufactured by GE Healthcare Bioscience. The IgG-Fab solution was diluted to about 10 times using a buffer for immobilization (10 mM AcOH—AcONa, pH 4.5), and the IgG-Fab was immobilized on the sensor tip in accordance with the protocol attached to the Biacore 3000. In addition, a reference cell as negative control was also prepared by activating another flow cell on the tip with EDC/NHS and then immobilizing human serum albumin (manufactured by Wako Pure Chemical Industries, Ltd.). Peptide solutions of each of the SpG-β2* variant having concentrations of […] were prepared using a running buffer (20 mM NaH2PO4—Na2HPO4, 150 mM NaCl, 0.005% P-20, pH 7.4). The peptide solution was added to the sensor tip in a flow rate of 10 μL/min for 4 minutes. Bonding response curves at the time of addition (association phase, for 4 minutes) and after the addition (dissociation phase, for 4 minutes) were sequentially obtained at a measurement temperature of 25° C. After each measurement, the added peptide remaining on the sensor tip was removed by flowing the running buffer for 5 minutes or more; and about 10 mM NaOH was added for wash between the measurements if required.
However, the concentration of a protein solution was adjusted to 0.8 μM, bonding response curves at the time of adding the solution (association phase, for 1 minute) and after the addition (dissociation phase, for 2 minutes) were obtained, and a fitting analysis was carried out using one concentration of the solution.

Fab region of IgG = conditions: cited from earlier work

Q: What does the source list for “GB2*-E15W.1d: SpG-β2* one residue variant with E15W, amino acid sequence SEQ ID NO: 23 (TTYKLVINGKTLKGWTTTKAVDAETAERAFRQYATDNGVEGMWTYDPATKTFTVTE; SpG Mutant)”?
A: KA (affinity constant, KA=kon/koff) [1]: 1.08e+07 M⁻¹; koff [1]: 0.011 s⁻¹; kon [1]: 119000 s/M; KA Vs. Wild [1]: 4.8

Q: Which results are given for “GB2*-E15Y.1d: SpG-β2* one residue variant with E15Y, amino acid sequence SEQ ID NO: 21 (TTYKLVINGKTLKGYTTTKAVDAETAERAFRQYATDNGVEGMWTYDPATKTFTVTE; SpG Mutant)”?
A: KA (affinity constant, KA=kon/koff) [1]: 9.3e+06 M⁻¹; koff [1]: 0.01 s⁻¹; kon [1]: 92000 s/M; KA Vs. Wild [1]: 4.0

Q: Which results are given for “GB2*-T02R.1d: SpG-β2* one residue variant with T02R, amino acid sequence SEQ ID NO: 19 (TRYKLVINGKTLKGETTTKAVDAETAERAFRQYATDNGVEGMWTYDPATKTFTVTE; SpG Mutant)”?
A: KA (affinity constant, KA=kon/koff) [1]: 9.8e+06 M⁻¹; koff [1]: 0.01 s⁻¹; kon [1]: 98000 s/M; KA Vs. Wild [1]: 4.3

Q: With “GB2*-T02R/E15Y.1d: two residues variant of SpG-β2* with T02R and E15Y, SEQ ID NO: 27 (TRYKLVINGKTLKGYTTTKAVDAETAERAFRQYATDNGVEGMWTYDPATKTFTVTE; SpG Mutant)” as the substance, how does the “binding response (bonding response curve, FIG. 3)” value ([1]; protein solution 0.8 μM, raw bonding response curve compared under the same concentration) read?
A: higher than those of GB2*-Wild.1d and GB2*-T02R.1d

Q: What does the source list for “GB2*-Wild.1d: SpG β2 domain variant having excellent thermal stability, SEQ ID NO: 3; comparative example before introducing the mutation (TTYKLVINGKTLKGETTTKAVDAETAERAFRQYATDNGVEGMWTYDPATKTFTVTE; SpG Mutant) [reference compound]”?
A: KA (affinity constant, KA=kon/koff) [1]: 2.3e+06 M⁻¹; koff [1]: 0.038 s⁻¹; kon [1]: 88000 s/M; difference between association constant of the Patent Document 2 variant and association constant shown in Table 2 ([1]; GB2*-Wild.1d (Table 2) versus variant of Patent Document 2): about 1.4 times

Q: With “GB2-E15W.1d: E15W mutation introduced into wild SpG-β2 domain, SEQ ID NO: 25 (TTYKLVINGKTLKGWTTTKAVDAETAEKAFKQYANDNGVDGVWTYDDATKTFTVTE; SpG Mutant)” as the substance, how does the “association constant KA” value ([1]; fitting analysis using one concentration, 0.8 μM, association phase 1 minute, dissociation phase 2 minutes) read?
A: 1.6e+06 M⁻¹

Q: With “GB2-Wild.1d: wild β2 domain of Protein G, SEQ ID NO: 2 (TTYKLVINGKTLKGETTTKAVDAETAEKAFKQYANDNGVDGVWTYDDATKTFTVTE; Streptococcus sp. GX7809)” as the substance, how does the Kd (Fab region of IgG; described in Table 1 of Patent Document 2, read-out: dissociation constant) read?
A: 2570 nM

Q: And the “association constant (inverse number of the dissociation constant of Patent Document 2)” value (Fab region of IgG; inverse of the dissociation constant in Table 1 of Patent Document 2)?
A: 400000 M⁻¹
